Experimental data taken from patent publication EP4745117A1, “NOVEL INDENONE DERIVATIVE AND USE THEREOF” (Amyloid Solution Inc., priority 2023, dated 2025).

Columns and labels:
Aβ1-42 = target: T1, Aβ1-42 (Homo sapiens, UniProt P05067); assay: Amyloid-beta disaggregation test by Thioflavin-T analysis; type: biochemical; details: for EC50: Aβ1-42 50 µM aggregated 24 hours, then compound 0 - 500 µM for 48 hours at 37 °C, concentration disaggregating 50 % of aggregates vs control, read-out: EC50 (µM) Aβ; for disaggregation effect for amyloid-beta protein aggregates: statement in words summarising the Thioflavin-T results
T1 construct: dissolving Aβ1-42 or Tau-RD3 (Tau repeat domain 3) monomers in DMSO
Method: (§1) Each compound was dissolved in DMSO to a concentration of 10 mM. Then, the compounds were diluted with 6 % DMSO (in DW) for use.
(§2) Amyloid-beta and tau solutions were prepared by dissolving Aβ1-42 or Tau-RD3 (Tau repeat domain 3) monomers in DMSO to a concentration of 10 mM. Then, the solutions were diluted to 100 µM with DW and stored on ice.
(§3) Meanwhile, Thioflavin-T was dissolved in 50 mM glycine buffer (pH 8.5) to a concentration of 5 mM. Then, the solution was diluted to 5 µM with 50 mM glycine buffer (pH 8.5) and stored in the dark, protected from light.
(§4) The amyloid-beta and tau solutions prepared in Example 1.1 were each placed in 1.5 mL microcentrifuge tubes to a concentration of 50 µM or 35 µM, respectively, and then reacted at 37 °C for 24 hours.
(§5) To each 1.5 mL microcentrifuge tube in which the amyloid-beta and tau aggregation was complete, the compounds were added at concentrations ranging from 500 µM down to 0 µM by serial dilution, and then further reacted at 37 °C for 48 hours.
(§6) 25 µL of each completed reaction solution was added to each well of a 96-well fluorescence analysis plate, and 75 µL of the Thioflavin-T solution was added to each well. After reacting for 5 minutes at room temperature in the dark, the fluorescence value was measured at 450 nm (excitation) and 485 nm (emission) using a multi-mode microplate reader.
(§7) The fluorescence value of the group (control group) treated with only amyloid-beta or tau and aggregated for 72 hours was designated as 100 %. The fluorescence values measured after treating the amyloid-beta and tau aggregates (formed by reacting for 24 hours) with each compound by concentration and reacting for an additional 48 hours were converted to relative values.

[1] = target: Tau-RD3 (Tau repeat domain 3) (Homo sapiens, UniProt P10636); assay: Tau disaggregation test by Thioflavin-T analysis; type: biochemical; details: for EC50: Tau-RD3 35 µM aggregated 24 hours, then compound 0 - 500 µM for 48 hours at 37 °C, concentration disaggregating 50 % of aggregates vs control, read-out: EC50 (µM) Tau; for disaggregation effect for tau protein aggregates: statement in words summarising the Thioflavin-T results
Method: as §1, §2, §3, §4, §5, §6, §7

Sequence of Tau-RD3 (Tau repeat domain 3) (P10636 623-653 limits assumed): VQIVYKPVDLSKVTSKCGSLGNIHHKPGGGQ
T1 sequence (P05067 672-713 limits assumed): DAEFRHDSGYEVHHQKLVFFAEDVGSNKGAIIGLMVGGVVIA

Row | EC50 (Aβ1-42) | EC50 [1] | SMILES | disaggregation effect for amyloid-beta protein aggregates (Aβ1-42) | disaggregation effect for tau protein aggregates [1]
1 | > 250 µM | > 250 µM | Cc1ncsc1C1=C(c2cccnc2)C(=O)c2cc(NCC3CCOCC3)ccc21 [Compound 52, 3-(4-methylthiazol-5-yl)-2-(pyridin-3-yl)-6-(((tetrahydro-2H-pyran-4-yl)methyl)amino)-1H-inden-1-one] |  | 
2 | < 20 µM | < 20 µM | O=C1C(c2cncs2)=C(c2cncs2)c2ccc(OCCCc3ccccc3)cc21 [Compound 83, 6-(3-phenylpropoxy)-2,3-di(thiazol-5-yl)-1H-inden-1-one] | remarkably excellent disaggregation effect | remarkably excellent disaggregation effect
3 | 20 to 100 µM | 20 to 100 µM | Cc1ncsc1C1=C(c2cccnc2)C(=O)c2cc(NC3CCOCC3)ccc21 [Compound 56, 3-(4-methylthiazol-5-yl)-2-(pyridin-3-yl)-6-((tetrahydro-2H-pyran-4-yl)amino)-1H-inden-1-one] |  | 
4 | < 20 µM | > 250 µM | Cc1ncsc1C1=C(c2cccnc2)C(=O)c2cc(NC3CCCC3)ccc21 [Compound 49, 6-(cyclopentylamino)-3-(4-methylthiazol-5-yl)-2-(pyridin-3-yl)-1H-inden-1-one] |  | 
5 | < 20 µM | < 20 µM | COc1cc(OCCCc2ccccc2)cc2c1C(c1scnc1C)=C(c1cccnc1)C2=O [Compound 47, 4-methoxy-3-(4-methylthiazol-5-yl)-6-(3-phenylpropoxy)-2-(pyridin-3-yl)-1H-inden-1-one] | remarkably excellent disaggregation effect | remarkably excellent disaggregation effect
6 | 20 to 100 µM | 20 to 100 µM | Cc1ncsc1C1=C(c2cccnc2)C(=O)c2cc(N)ccc21 [Compound 59, 6-amino-3-(4-methylthiazol-5-yl)-2-(pyridin-3-yl)-1H-inden-1-one] |  | 
7 | 100 to 250 µM | > 250 µM | O=C1C(c2ccccc2)=C(c2ccccc2)c2ccc(OCCCc3ccccc3)cc21 [Compound 78, 2,3-diphenyl-6-(3-phenylpropoxy)-1H-inden-1-one] |  | 
8 | 20 to 100 µM | 20 to 100 µM | Cc1ncsc1C1=C(c2scnc2C)c2ccc(N3CCN(C)CC3)cc2C1=O [Compound 79, 6-(4-methylpiperazin-1-yl)-2,3-bis(4-methylthiazol-5-yl)-1H-inden-1-one] |  | 
9 | 20 to 100 µM | 100 to 250 µM | Cc1ncsc1C1=C(c2cccc(CN3CCOCC3)c2)C(=O)c2ccccc21 [Compound 89, 3-(4-methylthiazol-5-yl)-2-(3-(morpholinomethyl)phenyl)-1H-inden-1-one] |  | 
10 | > 250 µM | 20 to 100 µM | Cc1ccccc1C1=C(c2ccccc2C(=O)O)C(=O)c2ccccc21 [Compound 99-8, 2-(1-oxo-3-(o-tolyl)-1H-inden-2-yl)benzoic acid] |  | 
11 | 20 to 100 µM | 100 to 250 µM | Cc1ncsc1C1=C(c2cccnc2)C(=O)c2cc(N3CCN(C)CC3)ccc21 [Compound 64, 6-(4-methylpiperazin-1-yl)-3-(4-methylthiazol-5-yl)-2-(pyridin-3-yl)-1H-inden-1-one] |  | 
12 | < 20 µM | > 250 µM | O=C1C(c2cccc(N3CCOCC3)c2)=C(c2ccccc2)c2ccc(Cl)cc21 [Compound 73-7, 6-chloro-2-(3-morpholinophenyl)-3-phenyl-1H-inden-1-one] |  | 
13 | > 250 µM | > 250 µM | O=C1C(c2ccccc2)=C(c2ccccc2)c2ncccc21 [Compound 98, 6,7-diphenyl-5H-cyclopenta[b]pyridin-5-one] |  | 
14 | < 20 µM | > 250 µM | Cc1ncsc1C1=C(c2cccnc2)C(=O)c2cc(NCCOc3ccccc3)ccc21 [Compound 55, 3-(4-methylthiazol-5-yl)-6-((2-phenoxyethyl)amino)-2-(pyridin-3-yl)-1H-inden-1-one] |  | 
15 | > 250 µM | > 250 µM | Cc1ncsc1C1=C(c2cccnc2)C(=O)c2cc(NCCO)ccc21 [Compound 53, 6-((2-hydroxyethyl)amino)-3-(4-methylthiazol-5-yl)-2-(pyridin-3-yl)-1H-inden-1-one] |  | 
16 | < 20 µM | 20 to 100 µM | Cc1ccccc1C1=C(c2ccccc2C)c2ccc(O)cc2C1=O [Compound 82, 6-hydroxy-2,3-di-o-tolyl-1H-inden-1-one] |  | 

The next lines start with the compound.

Row | SMILES | EC50 (Aβ1-42) | EC50 [1] | disaggregation effect for amyloid-beta protein aggregates (Aβ1-42) | disaggregation effect for tau protein aggregates [1]
17 | O=C1C(c2ccccc2)=C(c2ccc(N3CCOCC3)cc2)c2ccccc21 [Compound 14, 3-(4-morpholinophenyl)-2-phenyl-1H-inden-1-one] | < 20 µM | > 250 µM |  | 
18 | COCCOc1ccc2c(c1)C(=O)C(c1cccnc1)=C2c1scnc1C [Compound 37, 6-(2-methoxyethoxy)-3-(4-methylthiazol-5-yl)-2-(pyridin-3-yl)-1H-inden-1-one] | 20 to 100 µM | 20 to 100 µM |  | 
19 | CC(=O)Oc1ccc2c(c1)C(=O)C(Br)=C2c1ccn(C)n1 [Compound 24, 2-bromo-3-(1-methyl-1H-pyrazol-3-yl)-1-oxo-1H-inden-6-yl acetate] | > 250 µM | < 20 µM |  | 
20 | O=C1C(C2CCCCC2)=C(c2ccccc2)c2ccccc21 [Compound 11, 2-cyclohexyl-3-phenyl-1H-inden-1-one] | 100 to 250 µM | > 250 µM |  | 
21 | O=C1C(c2cccnc2)=C(c2cn[nH]c2)c2ccc(OCCCc3ccccc3)cc21 [Compound 43, 6-(3-phenylpropoxy)-3-(1H-pyrazol-4-yl)-2-(pyridin-3-yl)-1H-inden-1-one] | > 250 µM | > 250 µM |  | 
22 | O=C1C(c2ccccc2)=C(c2ccccc2)c2ccc(N3CCOCC3)cc21 [Compound 12, 6-morpholino-2,3-diphenyl-1H-inden-1-one] | < 20 µM | > 250 µM |  | 
23 | Cc1ncsc1C1=C(c2cccnc2)C(=O)c2cc(NCCCc3ccccc3)ccc21 [Compound 20, 3-(4-methylthiazol-5-yl)-6-((3-phenylpropyl)amino)-2-(pyridin-3-yl)-1H-inden-1-one] | < 20 µM | < 20 µM | remarkably excellent disaggregation effect | remarkably excellent disaggregation effect
24 | Cc1ccncc1C1=C(c2scnc2C)c2ccc(OCCCc3ccccc3)cc2C1=O [Compound 21, 2-(4-methylpyridin-3-yl)-3-(4-methylthiazol-5-yl)-6-(3-phenylpropoxy)-1H-inden-1-one] | < 20 µM | < 20 µM | remarkably excellent disaggregation effect | remarkably excellent disaggregation effect
25 | Cc1ncsc1C1=C(c2cn[nH]c2)C(=O)c2cc(OCCCc3ccccc3)ccc21 [Compound 27, 3-(4-methylthiazol-5-yl)-6-(3-phenylpropoxy)-2-(1H-pyrazol-4-yl)-1H-inden-1-one] | < 20 µM | < 20 µM | remarkably excellent disaggregation effect | remarkably excellent disaggregation effect
26 | O=C1C(c2ccccc2)=C(c2ccccc2)c2ccc(Cl)cc21 [Compound 12-3, 6-chloro-2,3-diphenyl-1H-inden-1-one] | 100 to 250 µM | > 250 µM |  | 
27 | O=C1C(c2ccccc2)=C(c2cccc(N3CCOCC3)c2)c2ccccc21 [Compound 15, 3-(3-morpholinophenyl)-2-phenyl-1H-inden-1-one] | 20 to 100 µM | > 250 µM |  | 
28 | Cc1ncsc1C1=C(c2cnccn2)C(=O)c2cc(O)ccc21 [Compound 41-4, 6-hydroxy-3-(4-methylthiazol-5-yl)-2-(pyrazin-2-yl)-1H-inden-1-one] | > 250 µM | > 250 µM |  | 
29 | Cc1ncsc1C1=C(c2ccncc2)C(=O)c2cc(OCCCc3ccccc3)ccc21 [Compound 39, 3-(4-methylthiazol-5-yl)-6-(3-phenylpropoxy)-2-(pyridin-4-yl)-1H-inden-1-one] | < 20 µM | > 250 µM |  | 
30 | COc1ccc2c(c1)C(=O)C(c1cnccc1C)=C2c1scnc1C [Compound 22, 6-methoxy-2-(4-methylpyridin-3-yl)-3-(4-methylthiazol-5-yl)-1H-inden-1-one] | > 250 µM | 20 to 100 µM |  | 
31 | O=C1C(c2ccccc2)=C(Br)c2ccccc21 [Compound 5-4, 3-bromo-2-phenyl-1H-inden-1-one] | < 20 µM | < 20 µM | remarkably excellent disaggregation effect | remarkably excellent disaggregation effect
